Consider 25 compounds from patent US12257247B2 (Monte Rosa Therapeutics AG, priority 2023, dated 2025).

Structures are written as SMILES. Where two headings read alike, the source gives them in different places.

The target of the assay is T1, VAV1 (Homo sapiens, UniProt P15498+Q96SW2).
T1 construct: A heterozygous VAV1 C-terminal HiBiT knock-in pool was generated at Monte Rosa Therapeutics from a clonal Jurkat cell; endogenous in cells; host or cells: Jurkat clone stably expressing LgBiT, homozygous GSPT1-G575N; heterozygous VAV1-HiBiT knock-in pool
Put plainly: VAV1 degradation activity, VAV1-HiBiT knock-in Jurkat luminescence assay (Example A, Table 1). In kind it is cell-based. Particulars: VAV1-HiBiT knock-in Jurkat cells; for Dmax: Jurkat. Put shortly:
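Jurkat cells carrying VAV1-HiBiT knock-in, plated in RPMI/10% FBS with Endurazine live-cell substrate and pre-incubated ~16 h at 37° C. Compound dosed from 10 μM stock; luminescence read 6 and 24 h later. Response normalised to plate negative/positive controls, EC50 from 3-parameter logistic fit (hillslope 1).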

The mark [1] stands for this setting: luminescence read at 6 and 24 hours, read-out: VAV1 Dmax %.
The mark [2] stands for this setting: luminescence read at 6 and 24 hours, read-out: VAV1 Dmax %, class.
[3] abbreviates: luminescence read at 6 and 24 hours, read-out: VAV1 DC50.
Setting [4] is: luminescence read at 6 and 24 hours, read-out: VAV1 DC50 (nM), class.
Where [5] appears, read: luminescence read at 6 and 24 hours after compound addition, read-out: VAV1 Dmax %.
[6] abbreviates: luminescence read at 6 and 24 hours after compound addition, read-out: VAV1 Dmax %, class.
[7] abbreviates: luminescence read at 6 and 24 hours after compound addition, read-out: VAV1 DC50.
[8] abbreviates: luminescence read at 6 and 24 hours after compound addition, read-out: VAV1 DC50 (nM), class.

Turning to `CN1CC(=O)N(c2ccc(-c3cccc(C4CCC(=O)NC4=O)c3Cl)cn2)CC12CC2` (stereo not shown) [Compound 346, 3-(2-chloro-3-(6-(4-methyl-6-oxo-4,7-diazaspiro[2.5]octan-7-yl)pyridin-3-yl)phenyl)piperidine-2,6-dione], the Dmax by setting is: under setting [1], 29.4%; under setting [2], less than 60%. Further, the DC50 by setting is: under setting [3], not below 10000 nM; under setting [4], more than 1000 nM.

As to `COc1cc(OC(F)F)ccc1-c1cccc(C2CCC(=O)NC2=O)c1Cl` (stereo not shown) [Compound 137], the Dmax is 63.8% under setting [1] and 60 to 90% under setting [2]. In addition, the half-maximal degradation concentration (DC50) reads like this: under setting [3], 7440 nM; under setting [4], more than 1000 nM.

With `O=C1CCC(c2cccc(-c3ccc(CN4CCOCC4=O)cc3)c2Cl)C(=O)N1` (stereo not shown) [Compound 302], the Dmax is, setting by setting: under setting [1], 78%; under setting [2], 60 to 90%. The DC50 under setting [3] came out at 92.1 nM and the DC50 under setting [4] is not above 100 nM.

Regarding `O=C1CCC(c2cccc(-c3ccc(N4CCC4)cc3)c2Cl)C(=O)N1` (stereo not shown) [Compound 195, 3-(4′-(azetidin-1-yl)-2-chloro-[1,1′-biphenyl]-3-yl)piperidine-2,6-dione], the Dmax under setting [1] is 79.4% and the Dmax under setting [2] lay in the range of 60 to 90%. Further, the DC50 is, setting by setting: under setting [3], 552 nM; under setting [4], 100 to 1000 nM.

For the compound `C[C@@H]1COCC(=O)N1c1ccc(-c2cccc(C3CCC(=O)NC3=O)c2Cl)cc1` (stereo partly drawn) [Compound 441, 3-(2-chloro-4′-((R)-3-methyl-5-oxomorpholino)-[1,1′-biphenyl]-3-yl)piperidine-2,6-dione], the Dmax under setting [1] came out at 90.5% and the Dmax under setting [2] is more than 90%. Also, the DC50 runs as follows: under setting [3], 14.2 nM; under setting [4], not above 100 nM.

Regarding `Cn1ccc(COc2ccc(-c3cccc(C4CCC(=O)NC4=O)c3Cl)cn2)n1` (stereo not shown) [Compound 251, 3-(2-chloro-3-(6-((1-methyl-1H-pyrazol-3-yl)methoxy)pyridin-3-yl)phenyl)piperidine-2,6-dione], the Dmax by setting is: under setting [1], 73.8%; under setting [2], 60 to 90%. Also, the DC50 runs as follows: under setting [3], 354 nM; under setting [4], 100 to 1000 nM.

`C[C@H]1COC(=O)N1c1ccc(-c2cccc(C3CCC(=O)NC3=O)c2Cl)cc1` (stereo partly drawn) [Compound 216, 3-(2-chloro-4′-((S)-4-methyl-2-oxooxazolidin-3-yl)-[1,1′-biphenyl]-3-yl)piperidine-2,6-dione]: the Dmax is 86.6% under setting [1] and 60 to 90% under setting [2]. The DC50 runs as follows: under setting [3], 49 nM; under setting [4], not above 100 nM.

`CN1CCCN(Cc2ncc(-c3cccc(C4CCC(=O)NC4=O)c3Cl)cc2F)C1=O` (stereo not shown) [Compound 383, 3-(2-chloro-3-(5-fluoro-6-((3-methyl-2-oxotetrahydropyrimidin-1(2H)-yl)methyl)pyridin-3-yl)phenyl)piperidine-2,6-dione]: the Dmax under setting [1] is 80.2% and the Dmax under setting [2] is 60 to 90%. Also, the DC50 under setting [3] was found to be 113 nM and the DC50 under setting [4] lay in the range of 100 to 1000 nM.

With `O=C1CCC(c2cccc(-c3ccc(C(=O)n4cccc4)cc3)c2Cl)C(=O)N1` (stereo not shown) [Compound 222, 3-(2-chloro-4′-(1H-pyrrole-1-carbonyl)-[1,1′-biphenyl]-3-yl)piperidine-2,6-dione], the Dmax under setting [1] is 91% and the Dmax under setting [2] is more than 90%. In addition, the DC50 under setting [3] turned out to be 127 nM and the DC50 under setting [4] was 100 to 1000 nM.

Turning to `O=C1CCC(c2cccc(-c3ccc(-n4cc(F)ccc4=O)cc3)c2Cl)C(=O)N1` (stereo not shown) [Compound 246, 3-(2-chloro-4′-(5-fluoro-2-oxopyridin-1(2H)-yl)-[1,1′-biphenyl]-3-yl)piperidine-2,6-dione], the Dmax by setting is: under setting [1], 94.3%; under setting [2], more than 90%. Moreover, the DC50 under setting [3] stood at 17.5 nM and the DC50 under setting [4] was not above 100 nM.

For the compound `CC1CCN(c2ccc(-c3cccc(C4CCC(=O)NC4=O)c3Cl)cc2)C1=O` (stereo not shown) [Compound 304], the Dmax under setting [1] came out at 72% and the Dmax under setting [2] is 60 to 90%. The DC50 was 274 nM under setting [3] and 100 to 1000 nM under setting [4].

Take `O=C1CCC(c2cccc(-c3ccc(Cc4ncco4)cc3)c2Cl)C(=O)N1` (stereo not shown) [Compound 472, 3-(2-chloro-4′-(oxazol-2-ylmethyl)-[1,1′-biphenyl]-3-yl)piperidine-2,6-dione]: the Dmax reads like this: under setting [1], 96.7%; under setting [2], more than 90%. Further, the DC50 under setting [3] is 8.25 nM and the DC50 under setting [4] was not above 100 nM.

Take `O=C1CCC(c2cccc(-c3ccc(N4CCCC(F)C4=O)cc3)c2Cl)C(=O)N1` (stereo not shown) [Compound 323]: the Dmax is, setting by setting: under setting [1], 95%; under setting [2], more than 90%. Also, the DC50 is 10.6 nM under setting [3] and not above 100 nM under setting [4].

Turning to `Cc1cc(-c2cccc(C3CCC(=O)NC3=O)c2Cl)ccc1OCCN1CCOCC1` (stereo not shown) [Compound 155, 3-(2-chloro-3′-methyl-4′-(2-morpholinoethoxy)-[1,1′-biphenyl]-3-yl)piperidine-2,6-dione], the Dmax by setting is: under setting [1], 92.7%; under setting [2], more than 90%. Further, the DC50 runs as follows: under setting [3], 14.9 nM; under setting [4], not above 100 nM.

Consider `O=C1CCC(c2cccc(-c3ccc(CN4CCC(F)C4=O)cc3)c2Cl)C(=O)N1` (stereo not shown) [Compound 289], for which the Dmax by setting is: under setting [1], 86.7%; under setting [2], 60 to 90%. For the same compound, the DC50 runs as follows: under setting [3], 43.3 nM; under setting [4], not above 100 nM.

Turning to `O=C1CCC(c2cccc(-c3ccc(N4CCC5(COC5)C4=O)cc3)c2Cl)C(=O)N1` (stereo not shown) [Compound 358, 3-(2-chloro-4′-(5-oxo-2-oxa-6-azaspiro[3.4]octan-6-yl)-[1,1′-biphenyl]-3-yl)piperidine-2,6-dione], the Dmax by setting is: under setting [1], 44.3%; under setting [2], less than 60%. Also, the DC50 was not below 10000 nM under setting [3] and more than 1000 nM under setting [4].

On to `CN1Cc2cccc(-c3ccc(-c4cccc(C5CCC(=O)NC5=O)c4Cl)cc3)c2S1(=O)=O` (stereo not shown) [Compound 406, 3-(2-chloro-4′-(2-methyl-1,1-dioxido-2,3-dihydrobenzo[d]isothiazol-7-yl)-[1,1′-biphenyl]-3-yl)piperidine-2,6-dione], for which the greatest degradation seen (Dmax) is 82.4% under setting [1] and 60 to 90% under setting [2]. Also, the DC50 was 25.9 nM under setting [3] and not above 100 nM under setting [4].

With `Cn1ccc(CN2C(=O)COc3cc(-c4cccc(C5CCC(=O)NC5=O)c4Cl)ccc32)n1` (stereo not shown) [Compound 502, 3-(2-chloro-3-(4-((1-methyl-1H-pyrazol-3-yl)methyl)-3-oxo-3,4-dihydro-2H-benzo[b][1,4]oxazin-7-yl)phenyl)piperidine-2,6-dione], the Dmax reads like this: under setting [5], 97.8%; under setting [6], more than 90%. The DC50 is, setting by setting: under setting [7], 3.95 nM; under setting [8], not above 100 nM.

For `O=C1CCC(c2cccc(-c3ccc(N4CCCCC4C(F)F)cc3)c2Cl)C(=O)N1` (stereo not shown) [Compound 469, 3-(2-chloro-4′-(2-(difluoromethyl)piperidin-1-yl)-[1,1′-biphenyl]-3-yl)piperidine-2,6-dione], the Dmax runs as follows: under setting [1], 79.4%; under setting [2], 60 to 90%. For the same compound, the DC50 reads like this: under setting [3], 266 nM; under setting [4], 100 to 1000 nM.

With `O=C1CCC(c2cccc(-c3ccc(CN4CC5(F)CC(C5)C4=O)cc3)c2Cl)C(=O)N1` (stereo not shown) [Compound 269], the Dmax was 96.9% under setting [1] and more than 90% under setting [2]. Besides, the DC50 was 6.83 nM under setting [3] and not above 100 nM under setting [4].

With `CN1CC2(CCC(=O)N2c2ccc(-c3cccc(C4CCC(=O)NC4=O)c3Cl)cc2)C1` (stereo not shown) [Compound 371, 3-(2-chloro-4′-(2-methyl-6-oxo-2,5-diazaspiro[3.4]octan-5-yl)-[1,1′-biphenyl]-3-yl)piperidine-2,6-dione], the Dmax is, setting by setting: under setting [1], 37.8%; under setting [2], less than 60%. Moreover, the DC50 is not below 10000 nM under setting [3] and more than 1000 nM under setting [4].

Consider `Cn1ccc(Cn2ncc3cc(-c4cccc(C5CCC(=O)NC5=O)c4Cl)ccc32)n1` (stereo not shown) [Compound 498, 3-(2-chloro-3-(1-((1-methyl-1H-pyrazol-3-yl)methyl)-1H-indazol-5-yl)phenyl)piperidine-2,6-dione], for which the Dmax by setting is: under setting [5], 98%; under setting [6], more than 90%. Besides, the 50% degradation concentration (DC50) under setting [7] amounted to 11.8 nM and the DC50 under setting [8] was not above 100 nM.

With `O=C1CCC(c2cccc(-c3ccc(N4CCCN(CC(F)(F)F)C4=O)cc3)c2Cl)C(=O)N1` (stereo not shown) [Compound 449, 3-(2-chloro-4′-(2-oxo-3-(2,2,2-trifluoroethyl)tetrahydropyrimidin-1(2H)-yl)-[1,1′-biphenyl]-3-yl)piperidine-2,6-dione], the Dmax reads like this: under setting [1], 97%; under setting [2], more than 90%. In addition, the DC50 is, setting by setting: under setting [3], 6.45 nM; under setting [4], not above 100 nM.

Regarding `O=C1CCC(c2cccc(-c3ccc(N4CCOC4=O)cc3)c2Cl)C(=O)N1` (stereo not shown) [Compound 212, 3-(2-chloro-4′-(2-oxooxazolidin-3-yl)-[1,1′-biphenyl]-3-yl)piperidine-2,6-dione], the Dmax by setting is: under setting [1], 47.3%; under setting [2], less than 60%. The 50% degradation concentration (DC50) under setting [3] worked out at 7990 nM and the DC50 under setting [4] is more than 1000 nM.

`O=C1CCC(c2cccc(-c3cccc(COC4CCOC4)c3)c2Cl)C(=O)N1` (stereo not shown) [Compound 190, 3-(2-chloro-3′-(((tetrahydrofuran-3-yl)oxy)methyl)-[1,1′-biphenyl]-3-yl)piperidine-2,6-dione]: the Dmax under setting [1] amounted to 21.5% and the Dmax under setting [2] was less than 60%. Also, the DC50 under setting [3] came to 3330 nM and the DC50 under setting [4] is more than 1000 nM.
